Data published in publication PMC5242521 (PLoS ONE, 2017).
“And” between values parts separate entries of the source, which are not always exact repeats. Equal values may be shown once. “Also recorded” adds a separate entry of the source.

Key:
P-gp [1] = biological target: P-gp (Homo sapiens, UniProt P08183); test: P-gp activity: rhodamine 123 accumulation in MCF7R cells; conditions: pyrethroid 100 μM
Protocol: (§1) The effects of pyrethroids on activity of ABC and SLC transporters were determined through measuring cellular accumulation or retention of fluorescent or radiolabeled reference substrates for transporters, in the presence or absence of reference inhibitors, as previously described. The nature of cells and reference substrates and inhibitors used for transport assays are summarized in S3 Table.
For accumulation assays (performed for all transporters, excepted BCRP), transporter-expressing cells usually cultured in 48-well plates were first incubated at 37°C with reference substrates in the absence (control) or presence of pyrethroids or reference inhibitors, in a well-defined transport assay medium, consisting of 136 mM NaCl, 5.3 mM KCl, 1.1mM KH2PO4, 0.8 mM MgSO4, 1.8 mM CaCl2, 10 mM HEPES, 11 mM D-glucose and adjusted to pH = 7.4 (excepted for MATE transporter assays, for which pH was set to 8.4). The nature of substrates and reference inhibitors and the incubation times with substrates, that varied according to the transporter, were selected in agreement with previous studies and are indicated in S3 Table. The total incubation volume with substrates was 200 μL/well. After washing twice in phosphate-buffered saline (PBS) (200 μL/well/washing), cells were lysed in distilled water (155 μL/well). An aliquot of cell lysate (5 μL) was then taken for determining cellular protein content by the Bradford method. The rest of lysate (150 μL/well) was used for measuring intracellular accumulation of reference substrates by scintillation counting or spectrofluorimetry using a SpectraMax Gemini SX spectrofluorometer (Molecular Devices, Sunnyvale, CA, USA) (excitation and emission wavelengths were 485 and 535 nm, respectively, for rhodamine 123 and fluorescein, and 355 and 460 nm, respectively, for DAPI).
(§2) Intracellular concentrations of reference substrates were initially expressed as fluorescence arbitrary units (for fluorescent dye substrates) or as moles (for radiolabeled substrates) and normalized to cellular protein content, determined by the Bradford method. They were finally used for calculating percentage of transporter activity, according to the following equations [41, 45]: %ABCtransporter activity=([Substrateref inh]-[Substratepyrethroid])×100/([Substrateref inh]-[Substratecontrol]) (1) %SLC transporter activity=([Substratepyrethroid]-[Substratref inh])×100/([Substratecontrol]-[Substrateref inh]) (2) with [Substratepyrethroid] = cellular concentration of reference substrate in the presence of pyrethroid, [Substrateref inh] = cellular concentration of reference substrate in the presence of reference inhibitor and [Substratecontrol] = cellular concentration of reference substrate in control cells not exposed to pyrethroid or reference inhibitor.
(§3) The initial tested concentration of pyrethroids was 100 μM. […] Such concentrations were calculated using GraphPad Prism software (GraphPad Software, La Jolla, CA), through nonlinear regression based on the four parameter logistic function using the following equations: […]

OATP1B1 = biological target: T1, OATP1B1 (Homo sapiens, UniProt Q9Y6L6); test: OATP1B1 activity: E3S accumulation in CHO-OATP1B1 cells; assay type: cell-based; conditions: pyrethroid 100 μM; CHO-OATP1B1 cells, E3S
T1 construct: expressed in transfected cells; host or cells: CHO
T1 sequence (Q9Y6L6 1-691): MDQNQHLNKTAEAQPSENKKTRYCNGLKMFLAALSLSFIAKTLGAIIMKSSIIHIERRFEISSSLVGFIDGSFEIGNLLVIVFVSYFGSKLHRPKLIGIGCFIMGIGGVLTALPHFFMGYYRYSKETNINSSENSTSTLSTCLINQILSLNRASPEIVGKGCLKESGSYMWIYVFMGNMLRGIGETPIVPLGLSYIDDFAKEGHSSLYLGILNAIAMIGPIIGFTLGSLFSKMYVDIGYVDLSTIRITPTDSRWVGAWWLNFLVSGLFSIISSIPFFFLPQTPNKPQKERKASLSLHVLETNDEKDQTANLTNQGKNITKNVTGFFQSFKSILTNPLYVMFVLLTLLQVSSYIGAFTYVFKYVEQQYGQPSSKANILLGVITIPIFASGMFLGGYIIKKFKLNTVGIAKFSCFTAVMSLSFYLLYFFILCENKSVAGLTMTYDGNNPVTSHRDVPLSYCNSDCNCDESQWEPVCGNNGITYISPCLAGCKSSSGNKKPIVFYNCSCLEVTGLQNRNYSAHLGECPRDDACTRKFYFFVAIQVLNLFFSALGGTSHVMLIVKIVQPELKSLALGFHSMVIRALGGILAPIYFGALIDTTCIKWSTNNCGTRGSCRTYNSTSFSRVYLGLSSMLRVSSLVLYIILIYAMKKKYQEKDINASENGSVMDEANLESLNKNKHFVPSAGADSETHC
Protocol: (§4) The initial tested concentration of pyrethroids was 100 μM.

OCT1 = biological target: T2, OCT1 (Homo sapiens, UniProt O15245); test: OCT1 activity: DAPI accumulation in HEK-OCT1 cells; conditions: for inhibition at 100 μM: human, pH 7.4
T2 sequence (O15245 1-554): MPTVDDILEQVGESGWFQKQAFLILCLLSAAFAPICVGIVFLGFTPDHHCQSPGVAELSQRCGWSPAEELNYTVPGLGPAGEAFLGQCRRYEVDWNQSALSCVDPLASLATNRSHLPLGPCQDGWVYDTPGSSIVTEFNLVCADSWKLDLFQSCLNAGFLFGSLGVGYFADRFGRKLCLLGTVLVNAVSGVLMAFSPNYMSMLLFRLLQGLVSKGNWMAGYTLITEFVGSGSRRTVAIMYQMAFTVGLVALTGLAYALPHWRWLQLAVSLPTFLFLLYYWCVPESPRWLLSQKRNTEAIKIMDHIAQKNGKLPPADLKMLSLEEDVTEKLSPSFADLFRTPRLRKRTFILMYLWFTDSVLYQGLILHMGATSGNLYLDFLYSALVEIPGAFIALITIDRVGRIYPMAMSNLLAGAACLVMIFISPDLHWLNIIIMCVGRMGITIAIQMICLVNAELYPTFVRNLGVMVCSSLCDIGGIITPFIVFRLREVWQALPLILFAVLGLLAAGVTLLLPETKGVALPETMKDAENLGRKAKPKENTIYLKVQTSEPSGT
Protocol: as §1
The nature of substrates and reference inhibitors and the incubation times with substrates, that varied according to the transporter, were selected in agreement with previous studies and are indicated in S3 Table. The total incubation volume with substrates was 200 μL/well. […] An aliquot of cell lysate (5 μL) was then taken for determining cellular protein content by the Bradford method.
as §2, §3

P-gp [2] = conditions: ref [26], [27]; cited from earlier work
BCRP = biological target: T3, BCRP (Homo sapiens, UniProt Q9UNQ0); test: BCRP activity: Hoechst 33342 retention in HEK-BCRP cells; assay type: cell-based; conditions: pyrethroid 100 μM
T3 construct: expressed in transfected cells; host or cells: HEK293
T3 sequence (Q9UNQ0 1-655): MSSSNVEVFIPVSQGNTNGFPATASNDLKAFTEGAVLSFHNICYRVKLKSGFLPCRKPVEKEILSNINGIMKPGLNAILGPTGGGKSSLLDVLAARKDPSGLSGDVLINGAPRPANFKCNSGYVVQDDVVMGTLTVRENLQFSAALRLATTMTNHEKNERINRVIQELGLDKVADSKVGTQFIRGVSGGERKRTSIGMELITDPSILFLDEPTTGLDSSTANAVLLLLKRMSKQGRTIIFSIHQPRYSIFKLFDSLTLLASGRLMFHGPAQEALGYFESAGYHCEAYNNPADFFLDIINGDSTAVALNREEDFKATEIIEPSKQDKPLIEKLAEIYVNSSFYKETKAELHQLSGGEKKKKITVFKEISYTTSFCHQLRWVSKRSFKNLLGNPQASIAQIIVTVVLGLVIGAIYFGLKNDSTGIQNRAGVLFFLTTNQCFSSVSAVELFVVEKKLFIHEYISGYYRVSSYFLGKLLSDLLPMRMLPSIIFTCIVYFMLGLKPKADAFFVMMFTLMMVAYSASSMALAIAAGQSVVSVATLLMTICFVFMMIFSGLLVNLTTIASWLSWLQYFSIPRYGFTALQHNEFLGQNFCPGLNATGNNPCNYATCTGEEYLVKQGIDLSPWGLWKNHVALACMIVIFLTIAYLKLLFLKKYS
Protocol: For retention assay (used for BCRP activity), HEK-BCRP cells cultured in 48-well plates were first loaded at 37°C with transport assay (200 μL/well) containing 16.2 μM Hoechst 33342 for 30 min. After washing twice in PBS (200 μL/well/washing), cells were reincubated in Hoechst 33342-free transport assay medium (200 μL/well) at 37°C for 90 min in the absence or presence of pyrethroids or of the BCRP reference inhibitor fumitremorgin C used at 10 μM. Cells were next lysed in distilled water (155 μL/well) after washing twice in PBS (200 μL/well/washing). The cell lysate was finally used for determining cellular protein content and intracellular retention of Hoechst 33342 (by spectrofluorimetry: excitation and emission wavelengths were 355 and 460 nm, respectively), as described above.
as §4

BCRP ATPase activity = conditions: ref [28]; cited from earlier work
[3] = set-up: method as in PMID 12708229; conditions: human subjects environmentally exposed; ref [70]; cited from earlier work
P-gp [4] = conditions: ref [78]; cited from earlier work

P-gp (Homo sapiens, UniProt P08183), sequence (P08183 whole entry): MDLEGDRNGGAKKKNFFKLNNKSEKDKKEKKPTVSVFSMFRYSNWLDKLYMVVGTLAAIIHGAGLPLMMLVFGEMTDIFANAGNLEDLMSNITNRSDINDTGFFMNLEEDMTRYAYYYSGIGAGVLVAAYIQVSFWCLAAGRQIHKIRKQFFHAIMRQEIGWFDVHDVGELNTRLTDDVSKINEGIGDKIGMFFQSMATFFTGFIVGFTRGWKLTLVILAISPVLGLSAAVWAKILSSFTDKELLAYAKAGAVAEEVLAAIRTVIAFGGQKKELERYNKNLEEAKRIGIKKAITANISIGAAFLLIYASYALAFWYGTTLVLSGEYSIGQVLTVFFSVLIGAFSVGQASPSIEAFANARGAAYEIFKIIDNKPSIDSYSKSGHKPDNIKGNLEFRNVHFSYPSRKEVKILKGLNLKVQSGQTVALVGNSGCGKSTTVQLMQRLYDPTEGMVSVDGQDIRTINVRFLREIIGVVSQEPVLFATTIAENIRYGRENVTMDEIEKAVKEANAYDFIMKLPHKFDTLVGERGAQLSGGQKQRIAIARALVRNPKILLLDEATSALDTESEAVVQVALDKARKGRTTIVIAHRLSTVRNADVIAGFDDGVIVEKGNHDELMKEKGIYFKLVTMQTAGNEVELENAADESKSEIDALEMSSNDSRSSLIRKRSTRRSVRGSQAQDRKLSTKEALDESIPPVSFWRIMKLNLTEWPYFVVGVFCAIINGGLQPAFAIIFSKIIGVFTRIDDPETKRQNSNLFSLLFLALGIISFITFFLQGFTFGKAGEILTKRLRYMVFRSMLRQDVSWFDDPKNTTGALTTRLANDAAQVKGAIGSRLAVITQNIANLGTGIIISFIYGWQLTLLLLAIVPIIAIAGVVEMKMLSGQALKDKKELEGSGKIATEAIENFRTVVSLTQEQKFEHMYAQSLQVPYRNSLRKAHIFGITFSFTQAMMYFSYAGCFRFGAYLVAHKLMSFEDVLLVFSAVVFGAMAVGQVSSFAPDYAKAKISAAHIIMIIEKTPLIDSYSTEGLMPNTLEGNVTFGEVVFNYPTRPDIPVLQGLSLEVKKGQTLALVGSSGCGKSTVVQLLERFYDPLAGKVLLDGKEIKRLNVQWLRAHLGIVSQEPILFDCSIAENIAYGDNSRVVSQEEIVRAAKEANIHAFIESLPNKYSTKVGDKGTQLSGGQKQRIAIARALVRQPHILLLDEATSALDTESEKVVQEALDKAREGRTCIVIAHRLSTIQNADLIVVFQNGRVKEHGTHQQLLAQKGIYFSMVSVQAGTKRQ

| SMILES | effect on P-gp activity (P-gp [1]) | inhibition of OATP1B1 activity (OATP1B1) | effect on OCT1 activity (OCT1; pyrethroid 100 μM, DAPI) | effect on P-gp activity or ATPase activity (P-gp [2]) | effect on BCRP activity (BCRP) | inhibition at 100 μM (OCT1) [%] | effect on BCRP ATPase activity (BCRP ATPase activity) | blood concentration [3] | efflux by P-gp (P-gp [4]) |
| --- | --- | --- | --- | --- | --- | --- | --- | --- | --- |
| CC(C)[C@H](C(=O)O[C@H](C#N)c1cccc(Oc2ccccc2)c1)c1ccc(Cl)cc1 [esfenvalerate] | did not alter | less than 50% | failed to significantly alter | inhibit | – | – | – | – | – |
| CC(C)=CC1C(C(=O)OCc2coc(Cc3ccccc3)c2)C1(C)C (stereo not shown) [resmethrin] | – | – | – | – | without inhibiting | 48.8 | inhibited | – | – |
| CC1(C)[C@H](C(=O)O[C@H](C#N)c2cccc(Oc3ccccc3)c2)[C@@H]1C=C(Br)Br [deltamethrin] | did not inhibit | – | – | – | – | 30.1 to 48.8 | – | < 5 μg/L and < 12.8 nM | not effluxed by P-gp |
| CC1(C)C(C=C(Cl)Cl)C1C(=O)OCc1cccc(Oc2ccccc2)c1 (stereo not shown) [permethrin] | did not alter | – | – | inhibit | without inhibiting | – | blocked; also recorded: inhibited | < 5 μg/L and < 12.8 nM | – |
